Data taken from patent US8216363B2, “Continuous antisolvent crystallization process and system using plug flow reactors” (Illinois Institute of Technology, priority 2008, dated 2012).
Like-named read-outs stand apart in the source and are kept apart here. Each block holds one compound with its values, some of them ahead of it.

Tests used:
[1] = water/methanol 80:20, one stage
Method: The solution was maintained at about 35° C., which is 10° C. above the saturation temperature, for at least 2 hours under gentle agitation for complete dissolution of solids. The solution was cooled down and maintained at room temperature (i.e., 25° C.) overnight (approximately 8 hours).
The concentration of antisolvent introduced to the reactor 403 was suitable to maintain a solution/antisolvent ratio of about 80:20 vol/vol (ml/ml) in all of the experiments.
Three experiments were conducted with one point of antisolvent addition (one stage or one reactor module). The residence time for experiments 1, 2 and 3 were 0.5 to 2 min, respectively.
The process was performed under vacuum. The solid phase was dried overnight (approximately 8 hours) at about 65° C. Raman spectra of the product crystals were collected to ascertain the polymorphic form.

[2] = Crystal size distribution of flufenamic acid crystals by particle analyzer probe (FBRM); type: physicochemical; conditions: FIG. 10
Method: An undersaturated solution of flufenamic acid (a non-steroidal anti-inflammatory drug) was prepared with 8.7 grams of the active pharmaceutical drug and 700 ml of ethanol (the solvent) in a 1000 ml volumetric flask. The solution was stirred at room temperature (i.e., 25° C.) until complete dissolution.
Flufenamic acid solution and water (the antisolvent) were added to the reactor at constant flow rates using peristaltic pumps. The flow rate of antisolvent added to reactor was chosen in order to maintain a solution/antisolvent ratio of 1:2 vol/vol (ml/ml) in all experiments.
The effects regarding number of addition points of antisolvent on particle size distribution were studied and are summarized in Table 3. In sum, four experiments were conducted. For each experiment, the total antisolvent flow rate was 200 ml/min. In Experiment 1, there was one antisolvent addition point with 200 ml/min of […] added therein. In Experiment 2, there were two antisolvent addition points with 100 ml/min of antisolvent added to the first and second reactor modules, respectively. In Experiment 3, there were three antisolvent addition points with 67 ml/min of antisolvent added to the first, second and third reactor modules, respectively. In Experiment 4, there were four antisolvent addition points with 50 ml/min of antisolvent added to the first, second, third and fourth reactor modules, respectively.
The Raman spectra of the product crystals was collected to ascertain polymorphic form. The CSD of the solid product was also characterized using a particle analyzer probe (e.g., a Lasentec brand probe). The dried crystals were slurried in water and 0.5% of sodium dodecyl sulfate (SDS) surfactant was added to disperse the particles. A magnetic stirrer was used to keep the particles suspended during particle analysis measurements.

[3] = Crystal size distribution of ketoconazole crystals by laser diffraction (continuous plug flow antisolvent crystallization); type: physicochemical
Method: A saturated solution of ketoconazole (an anti-fungal drug) was prepared with about 39 grams of the pharmaceutical compound and about 470 ml of methanol as the solvent in a 1000 ml volumetric flask. The solution was maintained at about 35° C. (10° C. above the saturation temperature) for about 2 hours under gentle agitation to ensure complete dissolution of the solids.
The ketoconazole feed solution (ketoconazole and methanol) and the antisolvent (water) were added to the reactor 403 at a constant flow rate using peristaltic pumps 405. The total amount of antisolvent added to the reactor 403 was enough to maintain a solution/antisolvent ratio of about 70:30 vol/vol (ml/ml) in all of the experiments.
The effect of residence time in the reactor (the term residence time is used to denote the total cumulative residence time in all of the reactor modules combined) and number of stages (that is, the number of reactor modules) on crystal size distribution was studied. […]
The effects of residence time and number of stages on the CSD were analyzed. […] Further, the diluted ketoconazole solid in methanol was measured with a UV spectrophotometer (e.g., a GENESYS 20 UV spectrophotometer) in order to determine the concentration of the ketoconazole. […]
The CSD of ketoconazole was measured at different residence times and number of stages as illustrated in Table 1 using laser diffraction. […]

polymorphic form of product crystals ([1]; as the residence time increased): β-glycine crystals
polymorphic form of product crystals ([1]; low residence time): α-glycine crystals
SMILES: NCC(=O)O [glycine]

mean crystal size ([2]; first addition point of antisolvent, ethanol/water 1:2): 65-70 μm
mean crystal size ([2]; printed as third addition point (second mention)): approximately 110 μm
mean crystal size ([2]; second addition point of antisolvent): approximately 80 μm
mean crystal size ([2]; third addition point of antisolvent): approximately 95 μm
SMILES: O=C(O)c1ccccc1Nc1cccc(C(F)(F)F)c1 [flufenamic acid]

mean crystal size ([3]; FIG. 5, first stage of antisolvent addition, residence time about 40 min, methanol/water 70:30): about 2.5 μm
mean crystal size ([3]; FIG. 7, two points of antisolvent addition): about 3.0 μm
SMILES: CC(=O)N1CCN(c2ccc(OCC3COC(Cn4ccnc4)(c4ccc(Cl)cc4Cl)O3)cc2)CC1 (centres unmarked) [ketoconazole]
